Like-named read-outs stand apart in the source and are kept apart here.
Key:
[1] = biological target: T1, 5-HT1Dα (Homo sapiens, UniProt P28221); experiment: Binding affinity, inhibition of 3H-5-HT binding, 5-HT1Dα; settings: 1 h, 100 nm, 60 minute at 22° C., mean of triplicate determinations
T1 construct: expressed in transfected cells
Experimental: (§1) Compounds of the previous examples, as well as reference compounds, were evaluated for binding affinity using cell types receptive specifically to 5-HT1Dα and 5-HT1Dβ ligands. The assay protocol generally entailed the incubation of membranes prepared from cells expressing the 1Dβ or 1Dα sub-type of 5-HT receptors, with ^3 H-5-HT. The test compound was incubated at 100 nm concentration with the radioligand and the membrane homogenates prepared from the recombinant cells. After a 60 minute incubation at 22° C., the incubation was terminated by vacuum filtration. The filters were washed with buffer and counted for radioactivity using liquid scintillation spectrometry. The affinity of the test compound for the 5-HT1Dβ or 5-HT1Dα receptor estimated by its inhibition of binding of the radioligand to the receptor. The result is expressed desciptively as percent inhibition of binding. Each value is the mean of triplicate determinations. For comparison, sumatriptan was also evaluated. The results are presented in Table 2 below, with reference to the compound numbers of Table 1 and the specific synthesis examples given above.

[2] = biological target: T2, 5-HT1Dβ (Homo sapiens, UniProt P28222); experiment: Binding affinity, inhibition of 3H-5-HT binding, 5-HT1Dβ; settings: 1 h, 100 nm, 60 minute at 22° C., mean of triplicate determinations
T2 construct: expressed in transfected cells
Experimental: as §1, with “determinations.” for “determinations. For comparison, sumatriptan was also evaluated. The results are presented in Table 2 below, with reference to the compound numbers of Table 1 and the specific synthesis examples given above.”

[3] = biological target: T3, 5-HT1D receptor (Oryctolagus cuniculus, UniProt P49144); experiment: Agonist assay, contraction of rabbit isolated saphenous vein; design: species or system rabbit (male New Zealand White)
T3 construct: Ring segments of the vein (4-5 mm in length) were cut and the endothelium gently removed; from tissue; host or cells: rabbit saphenous vein rings, endothelium removed
Experimental: Tissues were obtained from male New Zealand White rabbits (c. 3-4 kg) which were sacrificed by an overdose of pentobarbitol. The saphenous veins from both the left and right side were cleaned of fat and connective tissue and placed in Krebs solution (118 mM NaCl, 11 mM glucose, 25 mM NaHCO3, 4,7 mM KCl, 2.5 mM CaCl2 2H2 O, 1.2 mM KH2 PO4 and 1.2 mM MgSO4 7H2 O). Ring segments of the vein (4-5 mm in length) were cut and the endothelium gently removed. The segments were mounted in 10 mL baths containing Krebs buffer and were constantly aerated with 95% oxygen/5% carbon dioxide and maintained at 37° C. and pH 7.4 in order to record the isometric tension. A resting tension of 2.5 g was applied and the tissues allowed to equilibrate for 90 minutes, with washing every 15-20 minutes. After the equilibrium period, the rings were depolarized by addition of two aliquots of KCl (80 mM final concentration)separated by a 20 minute washing period. The tissues were then exposed to prazosin, idazoxan and indomethacin (all 1 μM in final concentration) for 30 minutes in order to exclude the actions of α1 - and α2 -adrenergic receptors and prostaglandin receptors respectively. […] Responses were calculated as a percentage of the maximal contraction evoked by 80 mM KCl. Only one compound was tested per preparation.
EC50 represents the concentration of the compound which causes 50% of the maximum contraction effected by it.

[4] = tested on: 5-HT1 receptor; settings: WO 93/21178, Example 67; cited from earlier work
[5] = tested on: 5-HT1F; settings: prior art; cited from earlier work
[6] = tested on: 5-HT1D; settings: prior art; cited from earlier work
[7] = tested on: other 5-HT receptors; settings: prior art; cited from earlier work
[8] = rabbit isolated saphenous vein, 50% of the maximum contraction effected by the compound, with prazosin, idazoxan, indomethacin 1 μM, read-out: EC50

T3 sequence (P49144 whole entry): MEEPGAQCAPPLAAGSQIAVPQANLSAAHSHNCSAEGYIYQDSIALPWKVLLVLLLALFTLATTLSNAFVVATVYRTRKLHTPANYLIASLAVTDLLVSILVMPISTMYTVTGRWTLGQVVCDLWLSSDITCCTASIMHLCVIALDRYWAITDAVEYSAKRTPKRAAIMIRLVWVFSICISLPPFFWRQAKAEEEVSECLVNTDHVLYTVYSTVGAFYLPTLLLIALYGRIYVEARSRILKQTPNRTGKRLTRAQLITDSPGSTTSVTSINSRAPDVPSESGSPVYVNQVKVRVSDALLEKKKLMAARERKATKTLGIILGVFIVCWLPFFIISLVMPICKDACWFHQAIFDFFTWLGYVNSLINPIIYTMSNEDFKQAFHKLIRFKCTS
T1 sequence (P28221 whole entry): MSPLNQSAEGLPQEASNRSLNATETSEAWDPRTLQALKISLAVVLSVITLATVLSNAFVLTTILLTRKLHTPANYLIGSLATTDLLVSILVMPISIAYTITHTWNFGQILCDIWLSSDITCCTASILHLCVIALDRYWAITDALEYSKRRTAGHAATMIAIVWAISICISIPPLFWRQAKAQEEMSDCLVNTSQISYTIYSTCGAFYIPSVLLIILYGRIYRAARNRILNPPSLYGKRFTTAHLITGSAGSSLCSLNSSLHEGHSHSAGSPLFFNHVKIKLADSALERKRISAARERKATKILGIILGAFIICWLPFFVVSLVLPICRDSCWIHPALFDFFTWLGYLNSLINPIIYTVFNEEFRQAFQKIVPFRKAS
T2 sequence (P28222 whole entry): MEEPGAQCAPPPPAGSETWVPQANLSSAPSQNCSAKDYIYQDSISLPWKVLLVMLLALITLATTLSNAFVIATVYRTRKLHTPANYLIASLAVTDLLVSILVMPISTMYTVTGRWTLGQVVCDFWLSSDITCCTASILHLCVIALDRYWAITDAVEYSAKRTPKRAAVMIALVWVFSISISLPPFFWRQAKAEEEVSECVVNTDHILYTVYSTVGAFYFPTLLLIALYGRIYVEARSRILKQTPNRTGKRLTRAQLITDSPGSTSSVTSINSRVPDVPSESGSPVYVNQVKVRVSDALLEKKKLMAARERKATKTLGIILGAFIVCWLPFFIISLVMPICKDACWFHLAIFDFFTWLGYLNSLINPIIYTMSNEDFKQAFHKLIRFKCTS

| SMILES | inhibition at 0.1 µM [1] [%] | inhibition at 0.1 µM [2] [%] | EC50 [3, 8] [nM] | further results |
| --- | --- | --- | --- | --- |
| CN1CCC(c2c[nH]c3ccc(-c4cccs4)cc23)C1 (racemic) [Compound 8, 3-(N-Methylpyrrolidin-3-yl)-5-(2-thienyl)-1H-indole] | 95 | 68 | 1730 | – |
| CN(C)CC(O)c1c[nH]c2ccc(-c3ccsc3)cc12 (racemic) [Compound 10, (±)-3-(2-N,N-Dimethylamino-1-hydroxylethyl)-5-(3-thienyl)-1H-indole] | 93 | 42 | 888 | – |
| CN1CCC[C@@H]1Cc1c[nH]c2ccc(-c3ccc(C(N)=O)s3)cc12 [5-(5-carbamoyl-2-thienyl)-3-(1-methylpyrrolidin-2(R)-ylmethyl)-1H-indole] | – | – | – | 5-HT1 receptor activity [4]: some 5-HT1 receptor activity |
| CN1CCC[C@@H]1Cc1c[nH]c2ccc(-c3cccs3)cc12 [Compound 1, 3-(N-Methylpyrrolidin-2R-ylmethyl)-5-(2-thienyl)-1H-indole] | 98 | 84 | 121 | – |
| CN1CCC[C@@H]1Cc1c[nH]c2ccc(-c3ccsc3)cc12 [Compound 2, 3-(N-Methylpyrrolidin-2R-ylmethyl)-5-(3-thienyl)-1H-indole] | 99 | 83 | 140 | – |
| CN(C)CCc1c[nH]c2ccc(-c3ccsc3)cc12 [Compound 3, 3-(2-N,N-Dimethylaminoethyl)-5-(3-thienyl)-1H-indole] | 98 | 78 | 432 | – |
| CN(C)CCc1c[nH]c2ccc(-c3cccs3)cc12 [Compound 4, 3-(2-N,N-Dimethylaminoethyl)-5-(2-thienyl)-1H-indole] | 97 | 72 | 806 | – |
| CN(C)CCc1c[nH]c2ccc(-c3ccc(CO)s3)cc12 [Compound 5, 3-(2-N,N-Dimethylaminoethyl)-5-(5-hydroxymethylthienyl-2-yl)-1H-indole] | 96 | 77 | – | – |
| CN1CCC[C@H]1Cc1c[nH]c2ccc(-c3cccs3)cc12 [Compound 6, 3-(N-Methylpyrrolidin-2S-ylmethyl)-5-(2-thienyl)-1H-indole] | 96 | 47 | 873 | – |
| NCCc1c[nH]c2ccc(-c3cccs3)cc12 [Compound 7, 3-(2-Aminoethyl)-5-(2-thienyl)-1H-indole] | 98 | 78 | 607 | – |
| CN(C)CCc1c[nH]c2ccc(-c3ccc(Cl)s3)cc12 [Compound 9, 5-(5-Chlorothien-2-yl)-3-(2-N,N-dimethylaminoethyl)-1H-indole] | 97 | 83 | – | – |
| c1csc(-c2ccc3[nH]cc(CCN4CCCC4)c3c2)c1 [Compound 11, 3-(2-Pyrrolidinylethyl)-5-(2-thienyl)-1H-indole] | 84 | 14 | – | EC50 [3]: 2340 nM; Emax ([3]; rabbit isolated saphenous vein, maximum contraction vs KCl (80 mM), read-out: agonist type (maximum contraction relative to 80 mM KCl)): < 60% |
| Cc1ccc(-c2ccc3[nH]cc(CCN(C)C)c3c2)s1 [Compound 12, 3-(2-N,N-Dimethylaminoethyl)-5-(5-methylthien-2-yl)-1H-indole] | 87 | 52 | – | – |
| CNS(=O)(=O)Cc1ccc2[nH]cc(CCN(C)C)c2c1 [Sumatriptan] | 95 | – | – | binding affinity for 5-HT1F [5]: high affinity; binding affinity for 5-HT1D [6]: high affinity; binding to other 5-HT receptors [7]: substantial exclusion of other 5-HT receptors |

— US5770742A, “Thiophene-tryptamine derivatives” (Allelix Biopharmaceuticals Inc., priority 1996, dated 1998)
